PubChem BioAssay (NCI)
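GI50 is the concentration that inhibits growth by half. Definition used: TGI = concentration required for complete inhibition of growth.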

How the values were obtained:
Assay in all cases: NCI tumour cell line growth inhibition, 384-well format
786-0 renal = test system: 786-0 renal
A498 renal = test system: A498 renal
A549 NSCLC = test system: A549 NSCLC
ACHN renal = test system: ACHN renal
BT-549 breast = test system: BT-549 breast
CAKI-1 renal = test system: CAKI-1 renal
CCRF-CEM leukemia = test system: CCRF-CEM leukemia
COLO 205 colon = test system: COLO 205 colon
DU-145 prostate = test system: DU-145 prostate
HCC-2998 colon = test system: HCC-2998 colon
HCT-116 colon = test system: HCT-116 colon
HCT-15 colon = test system: HCT-15 colon
HL-60(TB) leukemia = test system: HL-60(TB) leukemia
HOP-62 NSCLC = test system: HOP-62 NSCLC
HOP-92 NSCLC = test system: HOP-92 NSCLC
HT29 colon = test system: HT29 colon
IGROV1 ovarian = test system: IGROV1 ovarian
K-562 leukemia = test system: K-562 leukemia
KM12 colon = test system: KM12 colon
LOX IMVI melanoma = test system: LOX IMVI melanoma
M14 melanoma = test system: M14 melanoma
MALME-3M melanoma = test system: MALME-3M melanoma
MCF7 breast = test system: MCF7 breast
MDA-MB-231 breast = test system: MDA-MB-231 breast
MDA-MB-435 melanoma = test system: MDA-MB-435 melanoma
MDA-MB-468 breast = test system: MDA-MB-468 breast
MOLT-4 leukemia = test system: MOLT-4 leukemia
NCI-H226 lung = test system: NCI-H226 lung
NCI-H23 lung = test system: NCI-H23 lung
NCI-H322M lung = test system: NCI-H322M lung
NCI-H460 NSCLC = test system: NCI-H460 NSCLC
NCI-H522 lung = test system: NCI-H522 lung
NCI/ADR-RES ovarian = test system: NCI/ADR-RES ovarian
OVCAR-3 ovarian = test system: OVCAR-3 ovarian
OVCAR-4 ovarian = test system: OVCAR-4 ovarian
OVCAR-5 ovarian = test system: OVCAR-5 ovarian
OVCAR-8 ovarian = test system: OVCAR-8 ovarian
PC-3 prostate = test system: PC-3 prostate
RPMI-8226 leukemia = test system: RPMI-8226 leukemia
RXF 393 renal = test system: RXF 393 renal
SF-268 CNS = test system: SF-268 CNS
SF-295 CNS = test system: SF-295 CNS
SF-539 CNS = test system: SF-539 CNS
SK-MEL-2 melanoma = test system: SK-MEL-2 melanoma
SK-MEL-28 melanoma = test system: SK-MEL-28 melanoma
SK-MEL-5 melanoma = test system: SK-MEL-5 melanoma
SK-OV-3 ovarian = test system: SK-OV-3 ovarian
SN12C renal = test system: SN12C renal
SNB-19 CNS = test system: SNB-19 CNS
SR leukemia = test system: SR leukemia
SW-620 colon = test system: SW-620 colon
T-47D breast = test system: T-47D breast
TK-10 renal = test system: TK-10 renal
U251 glioblastoma = test system: U251 glioblastoma
UACC-257 melanoma = test system: UACC-257 melanoma
UACC-62 melanoma = test system: UACC-62 melanoma
UO-31 renal = test system: UO-31 renal

**Q.** What does the source list for CCN(c1cc(C#CCN2CCOCC2)cc(C(=O)NCc2c(C)cc(C)[nH]c2=O)c1C)C1CCC(N(C)CCOC)CC1 (centres undefined)?
**A.** GI50 ([…]-0 renal): > 100 µM; TGI (786-0 renal): > 100 µM; GI50 (A498 renal): 91.1 µM; TGI (A498 renal): > 100 µM; GI50 (A549 NSCLC): > 100 µM; TGI (A549 NSCLC): > 100 µM; GI50 (ACHN renal): > 100 µM; TGI (ACHN renal): > 100 µM; GI50 (BT-549 breast): > 100 µM; TGI (BT-549 breast): > 100 µM; GI50 (CAKI-1 renal): > 100 µM; TGI (CAKI-1 renal): > 100 µM; GI50 (CCRF-CEM leukemia): 4.63 µM; TGI (CCRF-CEM leukemia): 21.4 µM; GI50 (COLO 205 colon): > 100 µM; TGI (COLO 205 colon): > 100 µM; GI50 (DU-145 prostate): > 100 µM; TGI (DU-145 prostate): > 100 µM; GI50 (HCC-2998 colon): 8.42 µM; TGI (HCC-2998 colon): 92.5 µM; GI50 (HCT-116 colon): > 100 µM; TGI (HCT-116 colon): > 100 µM; GI50 (HCT-15 colon): > 100 µM; TGI (HCT-15 colon): > 100 µM; GI50 (HL-60(TB) leukemia): > 100 µM; TGI (HL-60(TB) leukemia): > 100 µM; GI50 (HOP-62 NSCLC): 67.2 µM; TGI (HOP-62 NSCLC): > 100 µM; GI50 (HOP-92 NSCLC): 2.55 µM; TGI (HOP-92 NSCLC): 34.7 µM; GI50 (HT29 colon): > 100 µM; TGI (HT29 colon): > 100 µM; GI50 (IGROV1 ovarian): > 100 µM; TGI (IGROV1 ovarian): > 100 µM; GI50 (K-562 leukemia): > 100 µM; TGI (K-562 leukemia): > 100 µM; GI50 (KM12 colon): > 100 µM; TGI (KM12 colon): > 100 µM; GI50 (LOX IMVI melanoma): > 100 µM; TGI (LOX IMVI melanoma): > 100 µM; GI50 (M14 melanoma): > 100 µM; TGI (M14 melanoma): > 100 µM; GI50 (MALME-3M melanoma): > 100 µM; TGI (MALME-3M melanoma): > 100 µM; GI50 (MCF7 breast): > 100 µM; TGI (MCF7 breast): > 100 µM; GI50 (MDA-MB-231 breast): 24.1 µM; TGI (MDA-MB-231 breast): > 100 µM; GI50 (MDA-MB-435 melanoma): > 100 µM; TGI (MDA-MB-435 melanoma): > 100 µM; GI50 (MDA-MB-468 breast): 58.4 µM; TGI (MDA-MB-468 breast): > 100 µM; GI50 (MOLT-4 leukemia): 1.45 µM; TGI (MOLT-4 leukemia): 3.55 µM; GI50 (NCI-H226 lung): 55.9 µM; TGI (NCI-H226 lung): > 100 µM; GI50 (NCI-H23 lung): > 100 µM; TGI (NCI-H23 lung): > 100 µM; GI50 (NCI-H322M lung): > 100 µM; TGI (NCI-H322M lung): > 100 µM; GI50 (NCI-H460 NSCLC): > 100 µM; TGI (NCI-H460 NSCLC): > 100 µM; GI50 (NCI-H522 lung): 32.8 µM; TGI (NCI-H522 lung): > 100 µM; GI50 (NCI/ADR-RES ovarian): > 100 µM; TGI (NCI/ADR-RES ovarian): > 100 µM; GI50 (OVCAR-3 ovarian): 40.6 µM; TGI (OVCAR-3 ovarian): > 100 µM; GI50 (OVCAR-4 ovarian): 51.4 µM; TGI (OVCAR-4 ovarian): > 100 µM; GI50 (OVCAR-5 ovarian): > 100 µM; TGI (OVCAR-5 ovarian): > 100 µM; GI50 (OVCAR-8 ovarian): > 100 µM; TGI (OVCAR-8 ovarian): > 100 µM; GI50 (PC-3 prostate): > 100 µM; TGI (PC-3 prostate): > 100 µM; GI50 (RPMI-8226 leukemia): 0.0254 µM; TGI (RPMI-8226 leukemia): 0.193 µM; GI50 (RXF 393 renal): 3.37 µM; TGI (RXF 393 renal): > 100 µM; GI50 (SF-268 CNS): > 100 µM; TGI (SF-268 CNS): > 100 µM; GI50 (SF-295 CNS): > 100 µM; TGI (SF-295 CNS): > 100 µM; GI50 (SF-539 CNS): > 100 µM; TGI (SF-539 CNS): > 100 µM; GI50 (SK-MEL-2 melanoma): 72.9 µM; TGI (SK-MEL-2 melanoma): > 100 µM; GI50 (SK-MEL-28 melanoma): > 100 µM; TGI (SK-MEL-28 melanoma): > 100 µM; GI50 (SK-MEL-5 melanoma): > 100 µM; TGI (SK-MEL-5 melanoma): > 100 µM; GI50 (SK-OV-3 ovarian): > 100 µM; TGI (SK-OV-3 ovarian): > 100 µM; GI50 (SN12C renal): > 100 µM; TGI (SN12C renal): > 100 µM; GI50 (SNB-19 CNS): > 100 µM; TGI (SNB-19 CNS): > 100 µM; GI50 (SR leukemia): 82.8 µM; TGI (SR leukemia): > 100 µM; GI50 (SW-620 colon): > 100 µM; TGI (SW-620 colon): > 100 µM; GI50 (T-47D breast): > 100 µM; TGI (T-47D breast): > 100 µM; GI50 (TK-10 renal): > 100 µM; TGI (TK-10 renal): > 100 µM; GI50 (U251 glioblastoma): > 100 µM; TGI (U251 glioblastoma): > 100 µM; GI50 (UACC-257 melanoma): > 100 µM; TGI (UACC-257 melanoma): > 100 µM; GI50 (UACC-62 melanoma): 51.3 µM; TGI (UACC-62 melanoma): > 100 µM; GI50 (UO-31 renal): > 100 µM; TGI (UO-31 renal): > 100 µM
